Assay results reported in US20260217707A1, “GLP-1R AGONISTS AND USES THEREOF” (Fochon Biosciences, Ltd., priority 2023, published 2026).
pEC50: −log10 of the molar value.

Biological target: GLP1R receptor (Homo sapiens, UniProt P43220)
Test: cAMP assay: intracellular cAMP detected by TR-FRET
Type: cell-based
Settings: cells incubated with compound at 37° C. for 30 min, maximum concentration 12 μM
Method: Intracellular cAMP concentration was detected by TR-FRET method to evaluate the activity of drug-induced GLP1R receptor. The cells were prepared in an experimental buffer solution (HBSS, 20 mM HEPES (pH 7.5), 0.1% BSA, 500 μM IBMX) and inoculated into 384 cell culture plates with a inoculated density of 2000 cells and a inoculated volume of 15 μL per well. The compound was diluted by 3 times gradient with DMSO, 10 concentration gradients, and the 10 concentration gradients were diluted by 100 times in Buffer. The maximum concentration point of compound to be tested was 12 μM. The inoculated 384 cell plates were added with 5 μL prepared working solution and incubated at 37° C. for 30 min. Eu-cAMP tracer was diluted 50 times and Ulight-anti-cAMP 150 times by detection buffer (cAMP Kit, Perkin Elmer, cat #TRF0263). At first, 10 μL Eu-cAMP tracer was added to each experimental well, and then 10 μL Uligh-anti-cAMP was added to each experimental well. Centrifuged the assay plate at 200 g, RT, for 30 s, incubated it at 25° C. for 1 h. Collected the data by Envision 2105 microplate reader with a HTRF module. Excitation: 340 nm; emission: 665 nm and 615 nm.
The activation rate of each concentration of the tested compound to the positive drug was calculated by the formula % Activity=100 (SignalcmpdSignalAve_PC)/(SignalAve_VCSignalAve_PC)×100, EC50 values and nonlinear regression curve fits were obtained using GraphPad Prism software.

Sequence of GLP1R receptor (P43220 24-463): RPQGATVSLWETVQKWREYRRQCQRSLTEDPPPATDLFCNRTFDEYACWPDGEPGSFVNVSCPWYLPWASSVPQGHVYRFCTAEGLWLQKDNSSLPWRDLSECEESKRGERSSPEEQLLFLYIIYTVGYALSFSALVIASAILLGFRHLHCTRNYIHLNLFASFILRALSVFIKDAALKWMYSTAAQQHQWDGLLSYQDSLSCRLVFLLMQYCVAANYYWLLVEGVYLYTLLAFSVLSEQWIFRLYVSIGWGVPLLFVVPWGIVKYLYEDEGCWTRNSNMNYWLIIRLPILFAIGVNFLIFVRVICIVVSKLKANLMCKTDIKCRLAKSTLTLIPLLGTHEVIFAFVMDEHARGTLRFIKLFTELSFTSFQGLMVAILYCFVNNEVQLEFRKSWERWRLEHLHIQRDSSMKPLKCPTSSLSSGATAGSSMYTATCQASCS

| Structure (SMILES) | pEC50 |
| --- | --- |
| Cc1cc(-n2nc3c(c2-n2ccn(-c4ccc5c(cnn5C)c4F)c2=O)[C@H](C)N(C(=O)c2sc4cc(C5CCOC(C)(C)C5)ccc4c2C2(c4noc(=O)[nH]4)C[C@@H]2C)CC3)cc(C)c1F (some centres unmarked) [Example 3] | 9.39 |
| Cc1cc(-n2nc3c(c2N2C(=O)N(c4ccc5c(cnn5C)c4F)C4CC42)[C@H](C)N(C(=O)c2cc4cc([C@H]5CCOC(C)(C)C5)ccc4n2[C@@]2(c4noc(=O)[nH]4)C[C@@H]2C)CC3)cc(C)c1F (stereo partly drawn) [Example 6, 3-((1S,2S)-1-(5-((S)-2,2-dimethyltetrahydro-2H-pyran-4-yl)-2-((4S)-3-(4-(4-fluoro-1-methyl-1H-indazol-5-yl)-3-oxo-2,4-diazabicyclo[3.1.0]hexan-2-yl)-2-(4-fluoro-3,5-dimethylphenyl)-4-methyl-4,5,6,7-tetrahydro-2H-pyrazolo[4,3-c]pyridine-5-carbonyl)-1H-indol-1-yl)-2-methylcyclopropyl)-1,2,4-oxadiazol-5(4H)-one] | 10.06 |
| Cc1cc(-n2nc3c(c2-n2ccn(-c4ccc5c(cnn5C)c4F)c2=O)[C@H](C)N(C(=O)c2sc4nc(C5CCOC(C)(C)C5)ccc4c2C2(c4noc(=O)[nH]4)C[C@@H]2C)CC3)cc(C)c1F (stereo partly drawn) [Example 29, 3-((2S)-1-(6-(2,2-dimethyl-tetrahydro-2H-pyran-4-yl)-2-((S)-3-(3-(4-fluoro-1-methyl-1H-indazol-5-yl)-2-oxo-2,3-dihydro-1H-imidazol-1-yl)-2-(4-fluoro-3,5-dimethyl-phenyl)-4-methyl-4,5,6,7-tetrahydro-2H-pyrazolo[4,3-c]pyridine-5-carbonyl)thieno [2,3-b]pyridin-3-yl)-2-methylcyclopropyl)-1,2,4-oxadiazol-5(4H)-one] | 10.03 |
| Cc1cc(-n2nc3c(c2-n2ccn(-c4ccc5c(cnn5C)c4F)c2=O)[C@H](C)N(C(=O)c2sc4cc(C5CCOC(C)(C)C5)cnc4c2C2(c4noc(=O)[nH]4)C[C@@H]2C)CC3)cc(C)c1F (stereo partly drawn) [Example 30, 3-((2S)-1-(6-(2,2-dimethyl-tetrahydro-2H-pyran-4-yl)-2-((S)-3-(3-(4-fluoro-1-methyl-1H-indazol-5-yl)-2-oxo-2,3-dihydro-1H-imidazol-1-yl)-2-(4-fluoro-3,5-dimethylphenyl)-4-methyl-4,5,6,7-tetrahydro-2H-pyrazolo[4,3-c]pyridine-5-carbonyl)thieno[3,2-b]pyridin-3-yl)-2-methyl-cyclopropyl)-1,2,4-oxadiazol-5(4H)-one] | 10.36 |
| Cc1cc(-n2nc3c(c2-n2ccn(-c4ccc5c(cnn5C)c4F)c2=O)[C@H](C)N(C(=O)c2oc4cc(C5CCOC(C)(C)C5)ncc4c2C2(c4noc(=O)[nH]4)C[C@@H]2C)CC3)cc(C)c1F (stereo partly drawn) [Example 31, 3-((2S)-1-(6-(2,2-dimethyl-tetrahydro-2H-pyran-4-yl)-2-((S)-3-(3-(4-fluoro-1-methyl-1H-indazol-5-yl)-2-oxo-2,3-dihydro-1H-imidazol-1-yl)-2-(4-fluoro-3,5-dimethylphenyl)-4-methyl-4,5,6,7-tetrahydro-2H-pyrazolo[4,3-c]pyridine-5-carbonyl)furo[3,2-c]pyridin-3-yl)-2-methyl-cyclopropyl)-1,2,4-oxadiazol-5(4H)-one] | 9.74 |
